# Measured values published in PMC7503713, “GANT61 Reduces Hedgehog Molecule (GLI1) Expression and Promotes Apoptosis in Metastatic Oral Squamous Cell Carcinoma Cells” (International Journal of Molecular Sciences, 2020).
# Values joined by “and” are separate entries in the source; they are usually repeats but may differ in a detail not shown here. Equal values may be shown once.
# Tests used:
# Type in all cases: cell-based, human
# HSC3 = assay: alamarBlue cytotoxicity assay, HSC3; details: 72 h of incubation
# Procedure: For cytotoxicity assessments, this study primarily focused on the highly metastatic HSC3 OSCC cell line (JCRB Cell Bank, Osaka, Japan) and employed other histological tumor cell types and non-tumor cells (Supplementary Table S1). HSC3 cells were placed in flasks ([…], 250 mL volume) containing DMEM medium (Gibco, Lif Technologies, Gaithesburg, MD, USA) supplemented with 10% fetal bovine serum (FBS, Gibco, Life Technologies, Gaithesburg, MD, USA) 1% penicillin, 1% streptomycin (Gibco, Life Technologies, Gaithesburg, MD, USA), and 0.8% hydrocortisone (Sigma-Aldrich, St. Louis, MO, USA). Cells were cultured and kept in incubators, under an atmosphere of 5% CO2 at 37 °C. Trypsinization was used to dissociate cells when cell growth reached the necessary confluence, i.e., 70 to 80% of the total culture flask volume. Cell cultures were tested periodically for mycoplasma contamination and evaluated by using a luminometer, according to the MycoAlert^TM PLUS protocol (Lonza, Walkersville Inc., Walkersville, MD, USA, 2012).
# (§1) To assess the cytotoxicity of the GLI inhibitor GANT61 (Sigma-Aldrich, St. Louis, MO, USA) in tumor and non-tumor cell lines, an alamarBlue assay (Sigma-Aldrich Chemical Co, St. Louis, MO, USA) was performed after 72 h of exposure to the inhibitor, as described by Ahmed et al., 1994 [46]. Cells were distributed on 96-well plates at a density of 7 × 10^4 cells/mL for adhered cells, and 3 × 10^5 cells/mL for cells in suspension. All tested compounds were dissolved in DMSO, added to wells containing 100 µL of cells in complete medium, and then incubated for 72 h. Eight concentrations of GANT61 (0.19 to 50 µg/mL), Doxorubicin (Laboratory IMA S.A.I.C., Buenos Aires, Argentina), and 5-Fluorouracil (5-FU, Sigma-Aldrich, St. Louis, MO, USA), both used as positive controls at concentrations ranging from 0.03 to 5 µg/mL, were added to respective wells. Cells treated with the vehicle (0.5% DMSO) used to dilute the tested compounds were used as negative controls. Before the end of the incubation period (4 h for cell lines and 24 h for PBMCs), 20 µL of alamarBlue stock solution (resazurin, Sigma-Aldrich, St. Louis, MO, USA) was added to each well. Absorbance was measured at 570 nm (reduced) and 595 nm (oxidized) wavelengths, using a Spectramax 190 plate reader (Molecular Devices; Sunnyvale, CA, USA).
# Statistical analyses were performed, using GraphPad Prism v. 6.03 (GraphPad Software, Inc., San Diego, USA). Data were analyzed according to distribution along the normal Gaussian curve. […] Differences between groups resulting from in vitro assays were evaluated by ANOVA (analysis of variance) testing, followed by the Student–Newman–Keuls test. […]
# HepG2 = assay: alamarBlue cytotoxicity assay, HepG2; details: 72 h of incubation
# Procedure: as §1
# (§2) Statistical analyses were performed, using GraphPad Prism v. 6.03 (GraphPad Software, Inc., San Diego, USA). Data were analyzed according to distribution along the normal Gaussian curve. IC50 values were obtained through non-linear regression, using results from three independent experiments carried out in duplicate. Differences between groups resulting from in vitro assays were evaluated by ANOVA (analysis of variance) testing, followed by the Student–Newman–Keuls test. This study considered a level of significance, corresponding to alpha (α) or “p” value, when results were less than or equal to 5%.
# K562 = assay: alamarBlue cytotoxicity assay, K562; details: 72 h of incubation
# Procedure: as §1, §2
# HCT-116 = assay: alamarBlue cytotoxicity assay, HCT-116; details: HCT-116, alamarBlue, 72 h of incubation
# Procedure: as §1, §2
# CAF 2 = assay: alamarBlue cytotoxicity assay, cancer-associated fibroblasts CAF 2; details: CAF 2, alamarBlue, 72 h of incubation
# Procedure: Two cancer-associated fibroblast populations (CAF1 and CAF2) were obtained as described by Sobral et al. (2011), from fragments of squamous cell carcinoma of the tongue that were removed from patients seen at the UNICAMP School of Dentistry in Piracicaba, São Paulo, Brazil.
# Specimens were washed with PBS, fragmented, and placed in 25 cm^2 cell culture flasks containing 1 mL of DMEM medium supplemented with 10% FBS and an antibiotic, and then maintained in an incubator, at 37 °C, under 5% CO2. Cell growth was monitored daily, and the medium was replaced every 2–3 days. […] Type I collagen production as assessed by ELISA was also used as a marker of myofibroblast activity. Both CAF1 and CAF2 primary populations were maintained for a maximum of 12 passages, with CAF phenotype maintenance evaluated through immunocytochemical staining for the α-SMA antibody after each two passages. […]
# To assess the cytotoxicity of the GLI inhibitor GANT61 (Sigma-Aldrich, St. Louis, MO, USA) in tumor and non-tumor cell lines, an alamarBlue assay (Sigma-Aldrich Chemical Co, St. Louis, MO, USA) was performed after 72 h of exposure to the inhibitor, as described by Ahmed et al., 1994 [46]. […] Absorbance was measured at 570 nm (reduced) and 595 nm (oxidized) wavelengths, using a Spectramax 190 plate reader (Molecular Devices; Sunnyvale, CA, USA). […]
# HSC3 cells [1] = assay: Morphological analysis by flow cytometry (FSC/SSC)
# Procedure: (§3) To study the effects of GANT61 on HSC3 cell viability, cycle, and death patterns, 4 mL of cellular solution (containing 0.7 × 10^5 cells/mL) was placed on 6-well plates and incubated overnight, to allow adhesion. […] For cell cycle analysis, the effects of GANT61 on HSC3 cells were also evaluated after 12 h of treatment. Negative controls were treated with the vehicle (0.2% DMSO) used to dilute the GLI inhibitor, and 5-fluorouracil (5-FU, 17 μM) was used as a positive control. All experiments were carried out in duplicate and repeated no less than three times. Cell viability was determined by the trypan blue exclusion method, in which 90 μL aliquots were collected at several incubation periods, stained with 10 μL trypan blue, and counted in a Neubauer chamber, under optical microscopy, at 20× magnification (Olympus CX41 Olympus, Tokyo, Japan).
# Morphological analysis of HSC3 cells was performed by flow cytometry, using FSC (size/volume) and SSC (granularity) parameters (FACSDiva). Cells were acquired (10,000 events/sample) and analyzed on a BD LSRFortessa flow cytometer, using the BD FACSDiva software version 6.2 (Becton Dickinson Biosciences, San José, CA, USA). Cellular debris was omitted from our analyses.
# HSC3 cells [2] = assay: Phosphatidylserine externalization by flow cytometry (annexin V-FITC/PI)
# Procedure: as §3
# Following treatment with GANT61, cells were labeled with annexin V-FITC and PI to determine cell viability (classified as viable, early apoptosis, late apoptosis, and necrosis), according to the manufacturer’s protocol (Becton Dickinson Biosciences, San José, CA, USA). Cells were acquired (10,000 events/sample) and analyzed on a BD LSRFortessa flow cytometer, using BD FACSDiva software version 6.2 (Becton Dickinson Biosciences, San José, CA, USA). The proportion of cells undergoing apoptosis was determined by the percentage of annexin labeling as quantified by the FlowJo program, version 10 (Flowjo LCC, Ashland, OR, USA). Cellular debris was omitted from our analyses.
SMILES,IC50 (HSC3),"IC50 (HSC3; Homo sapiens, HSC-3, 72 h)",IC50 (HepG2; Homo sapiens),IC50 (K562; Homo sapiens),IC50 (HCT-116; Homo sapiens),"IC50 (CAF 2; Homo sapiens, Fibroblast)","cell morphology (FSC/SSC) (HSC3 cells [1]; HSC3, 17 µM)","cell apoptosis (HSC3 cells [2]; 5-FU positive control, only after 72 h)",IC50 (HepG2),IC50 (K562),IC50 (HCT-116),IC50 (CAF 2),"cell morphology (FSC/SSC) (HSC3 cells [1]; HSC3, 18 and 36 µM, 24, 48 and 72 h)","cell apoptosis (HSC3 cells [2]; 18 µM, 48 and 72 h)","exposure of phosphatidylserine on HSC3 cell surfaces (HSC3 cells [2]; 36 µM, all times evaluated, vs DMSO (0.2%))"
"O=c1[nH]cc(F)c(=O)[nH]1 [5-FU, 5-fluorouracil]",16.8 µM,17 µM,1.3 µM,18.1 µM,4.07 µM,> 192 µM,changes consistent with apoptotic death,significantly increased cell apoptosis,–,–,–,–,–,–,–
CN(C)c1ccccc1CN1CCCN(Cc2ccccc2N(C)C)C1c1ccncc1 [GANT61],36 µM and 35.9 µM,–,–,–,–,–,–,–,> 116 µM,> 116 µM,> 116 µM,71.5 µM,cell shrinkage,significantly increased cell apoptosis,significantly higher exposure of phosphatidylserine
